Where a name gives a salt, the structure may show the parent alone.
Assays:
[1] = test system: subjects with occult or minimally classic subtypes of choroidal neovascularization due to AMD; experiment: Optical coherence tomography central retinal thickness (OCT CRT/CRLT) in AMD patients, 28-day eye-drop study; assay type: in vivo, human
Method: (§1) Three dosing regimens of pazopanib monohydrochloride eye drops (5 mg/mL TID, 2 mg/mL TID, 5 mg/mL QD) were administered for 28 days to 70 subjects with occult or minimally classic subtypes of choroidal neovascularization due to AMD. This study was designed to measure pharmacological activity of topically administered pazopanib in target tissues (choroid and retina) of patients with AMD by weekly evaluation of central retinal lesion thickness as measured by optical coherence tomography (OCT). In addition, the ocular and systemic safety and systemic pharmacokinetics of pazopanib treatment for 28 days were evaluated. Evaluation of efficacy was performed on an exploratory basis by weekly measurement of visual acuity, performing best-corrected visual acuity assessments at screening and day 29.
(§2) Of the total of 70 subjects that were randomized, 28 had been previously treated with anti-angiogenic agents for treatment of macular degeneration and 42 were treatment-naïve. The protocol excluded subjects who had received any treatment for AMD within 60 days of the first dose of study medication in this trial. A total of 68 subjects completed all study assessments, of which 63 completed the assessments of Day 29 visit without receiving any rescue medication. 6 subjects received anti-VEGF rescue medication prior to the Day 29 assessment (1 of 27 in the 5 mg/ml TID arm, 2 of 27 in the 2 mg/ml TID, 3 of 16 subjects in the 5 mg QD arm, which was discontinued per protocol amendment due to feasibility.) Baseline characteristics in the study were similar between treatment groups, with the exception of age and lesion size, which were increased in the 2 mg/ml TID arm.
Sites were certified by a central reading center to collect images to assess Central Retinal Thickness (CRT, subretinal fluid) and Central Retinal Lesion Thickness (CRLT, subretinal fluid and neovascular lesion) on a Stratus OCT 3 instrument weekly. Values were then determined by manual measurement at the reading center. As used herein, “OCT CRLT” means optical coherence tomography central retinal/lesion thickness as determined by manual measurement of the distance between the inner and outer retina, inclusive of subretinal fluid and any choroidal neovascularization (CNV) as measured in the central 1 mm area of the 7 mm posterior pole scan. As used herein, “OCT CRT” means optical coherence tomography central retinal thickness as determined by manual measurement of the distance between the inner and outer retina inclusive of any subretinal fluid as measured in the central 1 mm area of the 7 mm posterior pole scan.

[2] = test system: subjects with occult or minimally classic subtypes of choroidal neovascularization due to AMD; experiment: Best-corrected visual acuity (BCVA, ETDRS/AREDS procedure) in AMD patients, 28-day eye-drop study; assay type: in vivo, human; details: for Change from Baseline in BCVA Day 29, Point Estimate: Overall
Method: as §1, §2
Sites were trained and certified for visual acuity assessment with the standard procedure developed for the Early Treatment Diabetic Retinopathy Study (ETDRS) and adapted for the Age Related Eye Disease Study (AREDS). Best-corrected visual acuity (BCVA) measurements were performed at screening and Day 29 visits and, at other visits, use of the previous refraction for the visual acuity (VA) assessment was allowed.

Cc1ccc(Nc2nccc(N(C)c3ccc4c(C)n(C)nc4c3)n2)cc1S(N)(=O)=O [pazopanib monohydrochloride, 5-[[4-[(2,3-dimethyl-2H-indazol-6-yl)methylamino]-2-pyrimidinyl]amino]-2-methylbenzenesulfonamide monohydrochloride]
Change from Baseline in Central Retinal Thickness at Day 29, CRT LSMean ([1]; 2 mg/ml TID eye drops, CFH genotype CC, N=3): 22.15 | Change from Baseline in Central Retinal Thickness at Day 29, CRT LSMean ([1]; 2 mg/ml TID eye drops, CFH genotype CT, N=10): −14.6 | Change from Baseline in Central Retinal Thickness at Day 29, CRT LSMean ([1]; 2 mg/ml TID eye drops, CFH genotype TT, N=4): −45.5 | Change from Baseline in Central Retinal Thickness at Day 29, CRT LSMean ([1]; 5 mg/ml TID eye drops, CFH genotype CC, N=7): 9.23 | Change from Baseline in Central Retinal Thickness at Day 29, CRT LSMean ([1]; 5 mg/ml TID eye drops, CFH genotype CT, N=9): 21.51 | Change from Baseline in Central Retinal Thickness at Day 29, CRT LSMean ([1]; 5 mg/ml TID eye drops, CFH genotype TT, N=5): −88.8 | mean decrease in CRT ([1]; day 29, subjects with the CFH TT genotype, 5 mg/ml TID, statistically significant): 89 micron | changes from baseline in OCT CRT / CRLT ([1]; overall population): no statistically significant changes from baseline | Change from Baseline BCVA at Day 29, BCVA LSMean (SE) ([2]; 2 mg/ml TID, CFH Y402H genotype CC, N=3): 0.85 (4.07) | Change from Baseline BCVA at Day 29, BCVA LSMean (SE) ([2]; 2 mg/ml TID, CFH Y402H genotype CT, N=10): −1.52 (2.24) | Change from Baseline BCVA at Day 29, BCVA LSMean (SE) ([2]; 2 mg/ml TID, CFH Y402H genotype TT, N=4): 5.43 (3.60) | change in visual acuity ([2]; 5 mg/ml TID group only, enhanced in previously treated group and those with a T allele): Statistically significant increases | Change from Baseline BCVA at Day 29, BCVA LSMean (SE) ([2]; 5 mg/ml TID, CFH Y402H genotype CC, N=7): 0.36 (2.68) | Change from Baseline BCVA at Day 29, BCVA LSMean (SE) ([2]; 5 mg/ml TID, CFH Y402H genotype CT, N=9): 4.09 (2.38) | Change from Baseline BCVA at Day 29, BCVA LSMean (SE) ([2]; 5 mg/ml TID, CFH Y402H genotype TT, N=5): 6.96 (3.18) | Change from Baseline in BCVA at Day 29, Point Estimate ([2]; Naïve Subjects, 2 mg/mL TID): 1.16 | Change from Baseline in BCVA at Day 29, Point Estimate ([2]; Naïve Subjects, 5 mg/mL TID): 3.38 | Change from Baseline in BCVA at Day 29, Point Estimate ([2]; Naïve Subjects, 5 mg/mL once daily): 0.80 | Change from Baseline in BCVA Day 29, Point Estimate ([2]; 2 mg/mL TID): 0.76 | Change from Baseline in BCVA Day 29, Point Estimate ([2]; 5 mg/mL QD): 0.09 | Change from Baseline in BCVA Day 29, Point Estimate ([2]; 5 mg/mL TID): 4.32 | Change from Baseline in BCVA at Day 29, Point Estimate ([2]; Previously Treated Subjects, 2 mg/mL TID): 0.18 | Change from Baseline in BCVA at Day 29, Point Estimate ([2]; Previously Treated Subjects, 5 mg/mL TID): 5.61 | Change from Baseline in BCVA at Day 29, Point Estimate ([2]; Previously Treated Subjects, 5 mg/mL once daily): −0.80

— patent US20120165354A1, “TREATMENT METHOD” (GLAXO WELLCOME MANUFACTURING PTE LTD., priority 2009, published 2012)
